Data reported in PMC5453931, “Cathelicidin-trypsin inhibitor loop conjugate represents a promising antibiotic candidate with protease stability” (Scientific Reports, 2017).
Values after ≈ are worked out from the molar mass of the structure shown. Where a SMILES comes first, the peptide text is derived from it.

What was measured:
Type in all cases: cell-based
[1] = tested on: B. subtilis; conditions: 18 h
Method: (§1) A two-fold broth microdilution method described in our previous paper was used to determine the antimicrobial activities of parental and hybrid peptides. More than 30 strains including Gram-negative bacteria, Gram-positive bacteria and fungi were used in the current assay, in which the standard strains were stored in our lab and the clinical strains were collected from local hospitals. Briefly, bacteria were incubated in Mueller-Hinton broth (MH broth) at 37 °C to exponential phase and diluted to 10^6 CFU/mL. A serial dilution of peptide sample were prepared in 96-well microtiter plates (50 μL) and mixed with equal volume of microbial inoculums (50 μL). The plate was slowly shaken in the microbial incubator, and measured at A595 after incubation at 37 °C for 18 h. The minimal concentrations at which no microbial growth occurred were recorded as MIC (minimal inhibitory concentration) values. The traditional antibiotic ampicillin was used as positive control. The results are shown in an average of the MICs obtained from three independent experiments.

[2] = tested on: C. albican; conditions: 18 h
Method: as §1

[3] = tested on: E. coli; conditions: 18 h
Method: as §1

[4] = tested on: P. aeruginosa; conditions: 18 h
Method: as §1

[5] = tested on: P. mirabilis; conditions: 18 h
Method: as §1

[6] = tested on: S. aureus; conditions: 18 h
Method: as §1

[7] = tested on: S. dysenteria; conditions: two-fold broth microdilution, MH broth, 37 °C, 18 h, A595; mean of three independent experiments in duplicate
Method: as §1

[8] = tested on: Vibrio Parahaemolyticus; assay: MIC, two-fold broth microdilution; conditions: Vibrio parahaemolyticus, 18 h, read-out: MIC Vibrio Parahaemolyticus
Method: as §1

SMILES	MIC B. subtilis [1]	MIC C. albican [2]	MIC E. coli [3]	MIC P. aeruginosa [4]	MIC P. mirabilis [5]	MIC S. aureus [6]	MIC S. dysenteria [7]	MIC [8]
CC(C)C[C@H](NC(=O)[C@H](CCCNC(=N)N)NC(=O)[C@H](CCCCN)NC(=O)[C@H](Cc1ccccc1)NC(=O)[C@H](Cc1ccccc1)NC(=O)[C@@H](N)CCCCN)C(=O)N[C@@H](CC(C)C)C(=O)N[C@@H](CCCCN)C(=O)N[C@@H](CO)C(=O)N[C@H](C(=O)N[C@@H](CCCNC(=N)N)C(=O)N[C@@H](CCCNC(=N)N)C(=O)N[C@@H](C)C(=O)N[C@H](C(N)=O)C(C)C)C(C)C [Hc6] (H-KFFKRLLKSVRRAV-NH2)	150 µg/mL (≈ 85.9 µM)	75 µg/mL (≈ 42.9 µM)	75 µg/mL (≈ 42.9 µM)	150 µg/mL (≈ 85.9 µM)	37.5 µg/mL (≈ 21.5 µM)	75 µg/mL (≈ 42.9 µM)	18.75 µg/mL (≈ 10.7 µM)	
CC(C)C[C@H](NC(=O)[C@H](CC(C)C)NC(=O)[C@H](CCCNC(=N)N)NC(=O)[C@H](CCCCN)NC(=O)[C@@H](N)Cc1ccccc1)C(=O)N[C@@H](CCCCN)C(=O)N[C@@H](CO)C(=O)N[C@H](C(=O)N[C@@H](CCCNC(=N)N)C(=O)N[C@@H](CCCNC(=N)N)C(=O)N[C@@H](C)C(=O)N[C@H](C(=O)N[C@@H](CCCCN)C(=O)N[C@@H](CCCCN)C(=O)N[C@@H](Cc1ccccc1)C(=O)N[C@@H](CCCNC(=N)N)C(=O)N[C@@H](CCCCN)C(N)=O)C(C)C)C(C)C [Hc9] (H-FKRLLKSVRRAVKKFRK-NH2)		150 µg/mL (≈ 69.5 µM)	150 µg/mL (≈ 69.5 µM)	150 µg/mL (≈ 69.5 µM)		9.38 µg/mL (≈ 4.34 µM)	18.75 µg/mL (≈ 8.68 µM)	
CC(C)C[C@H](NC(=O)[C@H](CCCNC(=N)N)NC(=O)[C@H](CCCCN)NC(=O)[C@H](Cc1ccccc1)NC(=O)[C@H](Cc1ccccc1)NC(=O)[C@@H](N)CCCCN)C(=O)N[C@@H](CC(C)C)C(=O)N[C@@H](CCCCN)C(=O)N[C@@H](CO)C(=O)N[C@H](C(=O)N[C@@H](CCCNC(=N)N)C(=O)N[C@@H](CCCNC(=N)N)C(=O)N[C@@H](C)C(N)=O)C(C)C [Hc7] (H-KFFKRLLKSVRRA-NH2)				150 µg/mL (≈ 91 µM)			75 µg/mL (≈ 45.5 µM)	
C[C@@H](O)[C@H]1C(=O)N2C(C(=O)O)=C(S[C@@H]3CN[C@H](C(=O)N(C)C)C3)[C@H](C)[C@H]12 [Meropenem, reference compound]								0.47 µg/mL (≈ 1.23 µM)
CC(C)C[C@H](NC(=O)[C@H](CCCNC(=N)N)NC(=O)[C@H](CCCCN)NC(=O)[C@H](Cc1ccccc1)NC(=O)[C@H](Cc1ccccc1)NC(=O)[C@@H](N)CCCCN)C(=O)N[C@@H](CC(C)C)C(=O)N[C@@H](CCCCN)C(=O)N[C@@H](CO)C(=O)N[C@H](C(=O)N[C@@H](CCCNC(=N)N)C(=O)N[C@@H](CCCNC(=N)N)C(=O)N[C@@H](C)C(=O)N[C@H](C(=O)N[C@@H](CCCCN)C(=O)N[C@@H](CCCCN)C(N)=O)C(C)C)C(C)C [Hc4] (H-KFFKRLLKSVRRAVKK-NH2)		75 µg/mL (≈ 37.4 µM)	75 µg/mL (≈ 37.4 µM)	150 µg/mL (≈ 74.9 µM)	75 µg/mL (≈ 37.4 µM)	75 µg/mL (≈ 37.4 µM)	4.69 µg/mL (≈ 2.34 µM)	
CC(C)C[C@H](NC(=O)[C@H](CC(C)C)NC(=O)[C@@H](N)CCCNC(=N)N)C(=O)N[C@@H](CCCCN)C(=O)N[C@@H](CO)C(=O)N[C@H](C(=O)N[C@@H](CCCNC(=N)N)C(=O)N[C@@H](CCCNC(=N)N)C(=O)N[C@@H](C)C(=O)N[C@H](C(=O)N[C@@H](CCCCN)C(=O)N[C@@H](CCCCN)C(=O)N[C@@H](Cc1ccccc1)C(=O)N[C@@H](CCCNC(=N)N)C(=O)N[C@@H](CCCCN)C(N)=O)C(C)C)C(C)C [Hc11] (H-RLLKSVRRAVKKFRK-NH2)							150 µg/mL (≈ 79.6 µM)	
CC(C)C[C@H](NC(=O)[C@H](CC(C)C)NC(=O)[C@H](CCCNC(=N)N)NC(=O)[C@H](CCCCN)NC(=O)[C@@H](N)Cc1ccccc1)C(=O)N[C@@H](CCCCN)C(=O)N[C@@H](CO)C(=O)N[C@H](C(=O)N[C@@H](CCCNC(=N)N)C(=O)N[C@@H](CCCNC(=N)N)C(=O)N[C@@H](C)C(=O)N[C@H](C(=O)N[C@@H](CCCCN)C(=O)N[C@@H](CCCCN)C(=O)N[C@@H](Cc1ccccc1)C(N)=O)C(C)C)C(C)C [Hc15] (H-FKRLLKSVRRAVKKF-NH2)			75 µg/mL (≈ 40 µM)				37.5 µg/mL (≈ 20 µM)	
